Experimental data from patent US20250009790A1, “METHODS FOR INDUCING VASODILATION” (THE FLOREY INSTITUTE OF NEUROSCIENCE AND MENTAL HEALTH, priority 2021, published 2025).
“Also recorded” adds a separate entry of the source.

Legend:
[1] = biological target: T1, CGRP receptors (Rattus norvegicus, UniProt Q63118+Q9JJ74); assay: Zinc bis(histidinate)-induced cutaneous vasodilation after CGRP receptor antagonist pre-treatment (LDF); assay type: in vivo; settings: rat hind paw; BIBN4096 3 mg/kg i.v. pre-treatment before Zn-bis-His 3, 10 and 30 mg/kg i.v.
T1 construct: from tissue; host or cells: live anaesthetized rat, hind-paw skin vasculature (in vivo)
Method: (§1) Rats were anaesthetized with urethane (2 g/kg i.p.) after light anaesthesia with inhalation of 5% isoflurane. A laser Doppler probe (OxyFlo probe MSP300XP; ADI Blood Flowmeter) was placed on one hind paw (hair removed with depilatory cream). The animal was allowed to stabilize for 30 min to establish baseline parameters. A single i.v. dose of zinc bis(histidinate) was then administered at 3 mg/kg. The haemodynamic and cutaneous blood flow measurements by laser Doppler flow (LDF) were recorded continuously for 15 min. Then, the effects of 10 mg/kg and 30 mg/kg doses of zinc bis(histidinate) were tested.
In order to better understand the effect of zinc bis(histidinate) on cutaneous blood flow, vasodilation mediated by sensory nerves was blocked by pre-treatment of the rat with a CGRP (calcitonin gene-related peptide) receptor antagonist. A dose of 3 mg/kg BIBN4096 (olcegepant, a known CGRP receptor antagonist was administered intravenously by slow infusion over 10 minutes prior to subsequent administration of zinc bis(histidinate) and measurement of cutaneous blood flow by LDF as described in Example 2.

[2] = tested on: rat hind paw; assay: Cutaneous blood flow by laser Doppler flow in anaesthetized rat hind paw; assay type: in vivo; settings: Zn-bis-His 3, 10 and 30 mg/kg i.v., L-His 67 mg/kg i.v.
Method: For in vivo measurements of cutaneous blood flow, an average of 3 s consecutive values calculated every 5 s were computed by LabChart software and the data were transformed as percentage of baseline (an average of 1.5 min recording before each dose). The area under the curve (AUC) for change from baseline values was calculated in Prism 8 software. MAP, hindquarter flow and conductance were taken immediately before and every 5 min after a single dose of treatment.
as §1

[3] = tested on: sheep during cardiopulmonary bypass; settings: cited from earlier work
[4] = tested on: rat mesenteric arteries; assay: Relaxation of isolated rat mesenteric arteries contracted with U46619 (myograph); assay type: cell-based; settings: arteries contracted with thromboxane mimetic U46619
Text: Functional in vitro protocols in isolated arteries. Human internal mammary artery and saphenous vein or a range of vessels from rats and mice (left main or anterior descending coronary arteries [250-400 μm internal diameter, i.d.], second order pulmonary interlobar arteries [300-600 μm i.d.], second or third order mesenteric arteries [200-350 μm i.d.], interlobar renal arteries [250-350 μm i.d.], saphenous arteries or veins [300-600 μm i.d.]), or the thoracic aorta were dissected and placed in ice-cold PSS-A with the following composition (mmol/L, mM): NaCl 119; KCl 4.69; MgSO4·7H2O 1.17; KH2PO4 1.18; glucose 5.5; NaHCO3 25; CaCl2·6H2O 2.5 saturated with carbogen (O2 95%; CO2 5%) at pH 7.4. In addition, rat middle cerebral (250-400 μm i.d.) and basilar (250-450 μm i.d.) arteries were used and for these vessels the PSS-A contained 1.5 mM CaCl2 to minimize the occurrence of spontaneous contractions.
After isolation of vessels, ˜2 mm length segments of arteries were mounted in myograph chambers (Model 610M and 620M; Danish Myo Technology, Denmark) containing PSS-A at 37° C. for isometric force measurement as described previously. Contractile and relaxation responses using rat and mice isolated vessels were recorded with LabChart 7 and a PowerLab 4/30 A/D converter (AD Instruments Pty Ltd, Australia) while those including human isolated vessels were recorded with LabChart 8 (AD Instruments) and Myodaq and Myodata 2.01 (Maastricht University, Maastricht, Netherlands). To normalize the basal conditions, the vessels were passively stretched according to a normalization protocol and adjusted to a diameter setting of 90% of that determined for an equivalent transmural pressure of 100 mmHg (30 mmHg for veins). After allowing the tissues to equilibrate for 30 min, the arteries were exposed to a potassium depolarizing solution (124 mM K^+ replacing Na^+ in PSS; termed KPSS) and noradrenaline (10 μM) for 2 min (chemicals, their source and preparation are provided in the online supplement). A second exposure to KPSS solution (only) was used to provide a reference contraction.
Five structurally dissimilar zinc delivery agents (zinc pyrithione, zinc disulfiram, clioquinol, Zn(DTSM) and zinc bis(histidinate)) were administered to rat mesenteric arteries according to the protocols above and the extent to which the arteries contracted were recorded. Acetylcholine and clioquinol were also administered and contractions recorded.

[5] = Mean arterial pressure in anaesthetized rat (carotid artery catheter); assay type: in vivo; settings: bolus i.v. 3, 10 and 30 mg/kg, measured for 10 minutes
Method: In vivo blood pressure and flow measurement. Rats and mice were anaesthetized by inhalation of 5% isoflurane (in O2) followed by i.p. injection of pentobarbitone in rats (60 mg/kg; TROY Laboratories, NSW, Australia, maintained by top up doses of 10-20 mg/kg i.v.) or i.p. injection of urethane (2.5 g/kg; Sigma, maintained by top up doses of 0.05-0.1 g/kg i.v.). Animals were placed on a homeostatic blanket system to maintain body temperature at 37±1° C. Lignocaine (1% s.c.) was injected for placement of a tracheotomy tube (for mechanical ventilation), carotid artery and jugular vein catheters.
All drug treatments were administered via the jugular vein catheter. Pulsatile blood pressure, mean arterial pressure (MAP) and heart rate (HR; beats/min) were measured via the carotid artery catheter filled with heparinized (10 U/ml; Pfizer, NY, USA) saline 0.9% and connected to a pressure transducer (Argon Medical Devices, Athens, Greece) and the output was recorded with LabChart 7 and a Powerlab 8SP (AD Instruments). […]
An increase in cutaneous blood flow associated with vasorelaxation typically results in a decrease in arterial pressure. Mean arterial pressure in a rat after administration of zinc bis(histidine) (3 mg/kg, 10 mg/kg or 30 mg/kg) or L-histidine (67 mg/kg) was measured by a pressure transducer attached to a catheter inserted in carotid artery as described in Example 2.

[6] = tested on: ovine model of cardiopulmonary bypass; assay: Ovine cardiopulmonary bypass with intra-operative zinc bis(histidinate) infusion; assay type: in vivo; settings: sheep on CPB (2 h); 3, 10 and 30 mg/kg infusion i.v. every 20 min
Text: Two merino ewes (35-50 kg bodyweight) were housed in individual metabolic cages with access to 5 litres of water and 800 g of oaten chaff daily. The sheep underwent a preparatory surgical procedure under isoflurane anaesthesia for the implantation of a transit-time flow probe around the renal artery for measurement of renal blood flow. Fibre-optic probes were inserted into the cerebral cortex, renal cortex and renal medulla for measurement of tissue perfusion, pO2 and temperature (see Calzavacca et al., 2015, Am J Physiol Regul Integr Comp Physiol 308, R832-839). Catheters were inserted into the renal and jugular veins, carotid artery and bladder. The experiments were undertaken five days later. Intra-operative analgesics and antibiotics were administered as described previously (Lankadeva et al., 2019, Kidney Int 95 1338-1346; Evans et al., 2020, Am J Physiol Regul Integr Comp Physiol 318, R206-R213; Lankadeva et al., 2021, Acta Physiologica doi.org/10.1111/apha.13596, e13596). Mean arterial pressure, renal blood flow, cerebral cortical, renal cortical and renal medullary tissue perfusion, and temperature were continuously recorded across a series of experimental periods. Arterial, mixed venous and renal venous blood samples were collected every 30 min for blood oximetry and biochemistry (ABL systems 625, Copenhagen, Denmark).
During the first 30 minutes, sheep were awake and unrestrained in their home metabolic cage. Anaesthesia was induced with sodium thiopental (15 mg/kg) and after endotracheal intubation, maintained on isoflurane (2.0%-2.5%) via an artificial ventilator prior to cardiopulmonary bypass or via a membrane oxygenator during cardiopulmonary bypass (FiO2: 60%). This FiO2 was chosen because it is standard during cardiac surgery at the inventors affiliated clinical centre. From the onset of anaesthesia, sheep received a maintenance infusion of compound sodium lactate (2 mL/kg/h; Baxter, NSW, Australia) for the entire duration of the experiment. Once stable anaesthesia was attained, a second experimental period (30 minutes) commenced. Cardiopulmonary bypass was then achieved at a target pump flow of 80 mL/kg/min, a target MAP of 65 mmHg, and a target body temperature of 34.5° C. The prefusion circuit was primed with 300-500 mL of blood from a donor animal, 1 g cefazolin (AFT Pharmaceuticals, NSW, Australia), 50 mL mannitol (20% wt/vol Osmitrol, Baxter, NSW, Australia) and 10 000 IU heparin, made up to 1.3 L with compound sodium lactate. Metaraminol (Metaraminol Montrose, Montrose Life Sciences, NSW, Australia) was administered in boluses of ˜0.25 mg (using a 0.5 mg/mL solution) only in cases where increasing pump flow was not sufficient to attain the target mean arterial pressure during cardiopulmonary bypass. Once stable cardiopulmonary bypass was attained, the sheep was maintained for ˜2 hours before starting a zinc bis(histidinate) infusion (18 mg/ml solution made freshly in 0.45% saline solution and filtered). For the first 20 min, volume equivalent to 3 mg/kg zinc bis(histidinate) was infused, followed by 20 minute of 10 mg/kg and then 20 min of 30 mg/kg zinc bis(histidinate). Plasma was collected every 30 min following the start of anaesthesia. Zinc levels in plasma were analysed using inductively coupled plasma mass spectroscopy (ICP-MS).

[7] = listed as Zinc bis(histidinate)

T1 sequence (Q63118 24-464): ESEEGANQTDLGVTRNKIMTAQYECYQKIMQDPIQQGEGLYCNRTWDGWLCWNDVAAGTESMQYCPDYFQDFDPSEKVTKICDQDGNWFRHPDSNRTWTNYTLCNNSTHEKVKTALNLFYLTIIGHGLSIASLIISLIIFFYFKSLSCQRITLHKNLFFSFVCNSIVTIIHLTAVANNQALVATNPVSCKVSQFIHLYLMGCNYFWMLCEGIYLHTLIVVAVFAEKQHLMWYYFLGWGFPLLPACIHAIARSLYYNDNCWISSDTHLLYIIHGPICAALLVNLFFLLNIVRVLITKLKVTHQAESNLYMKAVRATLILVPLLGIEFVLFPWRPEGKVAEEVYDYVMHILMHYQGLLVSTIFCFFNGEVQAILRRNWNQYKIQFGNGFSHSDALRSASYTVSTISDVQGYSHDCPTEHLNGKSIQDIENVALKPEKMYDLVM
T1 sequence (Q9JJ74 27-148): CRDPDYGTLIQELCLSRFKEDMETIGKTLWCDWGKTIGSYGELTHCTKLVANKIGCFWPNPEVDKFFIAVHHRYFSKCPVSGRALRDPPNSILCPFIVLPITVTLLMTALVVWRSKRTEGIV

## NCCCC[C@H](NC(=O)[C@@H](Cc1cc(Br)c(O)c(Br)c1)NC(=O)N1CCC(N2Cc3ccccc3NC2=O)CC1)C(=O)N1CCN(c2ccncc2)CC1 [BIBN4096, olcegepant]
[1]
  Effect on zinc bis(histidinate)-induced vasodilation (area under the vasodilation curve, LDF): reduction in vasodilation; also recorded: attenuated the effect

## N[C@@H](Cc1c[nH]cn1)C(=O)O [L-histidine, reference compound]
[2]
  Cutaneous blood flow (laser Doppler flux): did result in the same increase
[2]; listed as L-His
  Cutaneous blood flow (laser Doppler flux): did not cause an increase in cutaneous blood flow

## C[C@H](N)[C@H](O)c1cccc(O)c1 [Metaraminol]
[3]
  Systemic vascular conductance: increased systemic vascular conductance

## CNC([S-])=NN=C(C)C(C)=NN=C([S-])NC.[Zn+2] [Zn(DTSM)]
[4]
  Relaxation of rat mesenteric arteries: showed relaxation

## Oc1c(I)cc(Cl)c2cccnc12 [clioquinol]
[4]
  Relaxation of rat mesenteric arteries: showed relaxation

## N[C@@H](Cc1c[nH]cn1)C(=O)O [histidine]
[4]
  Relaxation of rat mesenteric arteries: did not provide the same relaxation; also recorded: little relaxation

## [Zn] [zinc]
[4]
  Relaxation of rat mesenteric arteries: minimal effects; also recorded: little relaxation

## zinc bis(histidinate)
[4]
  Relaxation of rat mesenteric arteries: showed relaxation; also recorded: greater relaxation
[4]; listed as zinc-bis-histidinate
  Relaxation of rat mesenteric arteries: dependent on the concentration
[2]
  Cutaneous blood flow (laser Doppler flux): increased cutaneous blood flow
[2]; [7]
  Cutaneous blood flow (laser Doppler flux): caused an increase in cutaneous blood flow
[2]; listed as zinc bis(histidine)
  Cutaneous blood flow (laser Doppler flux): increased blood flow
[5]
  Mean arterial pressure: expected decrease in arterial pressure was not observed
[5]; [7]
  Mean arterial pressure: does not change mean arterial pressure
[6]
  Cerebral cortical microcirculatory perfusion: rescued
  Renal blood flow: dose-dependent improvement
  Renal cortical microcirculatory perfusion: rescued
  Renal medullary microcirculatory perfusion: rescued
  Renal oxygen delivery: dose-dependent improvement
  Renal vascular resistance: dose-dependent improvement
  Systemic mean arterial pressure: without compromising systemic mean arterial pressure

## zinc disulfiram
[4]
  Relaxation of rat mesenteric arteries: showed relaxation

## zinc pyrithione
[4]
  Relaxation of rat mesenteric arteries: showed relaxation
